What all share (type): biochemical
Experiment [1] deals with T1, Kdr (Homo sapiens, UniProt P35968).
T1 construct: Kinases are expressed as either kinase domains or full length constructs; made in house
The experiment in a line: Kinase inhibition assay (33P transfer), Kdr. As to conditions: read-out: KDR-1. From the text:
(§1) The inhibitor compounds described herein are screened in the following manner. Kinases suitable for use in the following protocol to determine kinase activity of the compounds described herein include, -but are not limited to: Lck, Lyn, Src, Fyn, Syk, Zap-70, Itk, Tec, Btk, EGFR, ErbB2, Kdr, Flt-1, Flt-3, Tek, c-Met, InsR, and AKT.
(§2) Kinases are expressed as either kinase domains or full length constructs fused to glutathione S-transferase (GST) or polyHistidine tagged fusion proteins in either E. colior Baculovirus-High Five expression systems. […] In some instances, kinases are co-expressed or mixed with purified or partially purified regulatory polypeptides prior to measurement of activity.
(§3) Briefly, The transfer of ^33PO4 from ATP to the synthetic substrates poly(Glu, Tyr) 4:1 or poly(Arg, Ser) 3:1 attached to the bioactive surface of microtiter plates serves as the basis to evaluate enzyme activity. After an incubation period, the amount of phosphate transferred is measured by first washing the plate with 0.5% phosphoric acid, adding liquid scintillant, and then counting in a liquid scintillation detector.

Experiment [2] deals with T2, EGFR (Homo sapiens, UniProt P00533).
T2 construct: Kinases are expressed as either kinase domains or full length constructs; made in house
The experiment can be described thus: Kinase inhibition assay (33P transfer), EGFR. As to conditions: Table 2, kinase inhibition class; read-out: EGFR-1.
Source text: as §1
(§4) Kinases are expressed as either kinase domains or full length constructs fused to glutathione S-transferase (GST) or polyHistidine tagged fusion proteins in either E. colior Baculovirus-High Five expression systems. They are purified to near homogeneity by affinity chromatography essentially as previously described (Lehr et al., 1996; Gish et al., 1995). In some instances, kinases are co-expressed or mixed with purified or partially purified regulatory polypeptides prior to measurement of activity.
as §3, with “Kinase activity and inhibition are measured essentially by established protocols (Braunwalder et al., 1996). Briefly,” for “Briefly,”, “detector. The IC50 is determined by the concentration of compound that causes a 50% reduction in the amount of […] incorporated onto the substrate bound to the plate.” for “detector.”

Experiment [3] has as its target T3, Lck (Homo sapiens, UniProt P06239).
T3 construct: Kinases are expressed as either kinase domains or full length constructs; made in house
The experiment can be described thus: Kinase inhibition assay (33P transfer), Lck. The settings on record: read-out: Lck-1.
Source text: as §1, §2, §3

Experiment [4] has as its target T4, AKT (Homo sapiens, UniProt Q9Y243).
T4 construct: Kinases are expressed as either kinase domains or full length constructs; made in house
The experiment can be described thus: Kinase inhibition assay (33P transfer), AKT. As to conditions: Table 2, kinase inhibition class; read-out: AKT3-1.
Source text: as §1, §2, §3

Experiment [5] deals with T5, c-Met (Homo sapiens, UniProt P08581).
T5 construct: Kinases are expressed as either kinase domains or full length constructs; made in house
The experiment in a line: Kinase inhibition assay (33P transfer), c-Met. The settings on record: Table 2, kinase inhibition class; read-out: Met-1.
Source text: as §1, §4
as §3, with “Kinase activity and inhibition are measured essentially by established protocols (Braunwalder et al., 1996). Briefly,” for “Briefly,”, “detector. The IC50 is determined by the concentration of compound that causes a 50% reduction in the amount of […] incorporated onto the substrate bound to the plate.” for “detector.”

Experiment [6] addresses T6, Itk (Homo sapiens, UniProt Q08881).
T6 construct: Kinases are expressed as either kinase domains or full length constructs; made in house
T6 sequence (Q08881 1-620): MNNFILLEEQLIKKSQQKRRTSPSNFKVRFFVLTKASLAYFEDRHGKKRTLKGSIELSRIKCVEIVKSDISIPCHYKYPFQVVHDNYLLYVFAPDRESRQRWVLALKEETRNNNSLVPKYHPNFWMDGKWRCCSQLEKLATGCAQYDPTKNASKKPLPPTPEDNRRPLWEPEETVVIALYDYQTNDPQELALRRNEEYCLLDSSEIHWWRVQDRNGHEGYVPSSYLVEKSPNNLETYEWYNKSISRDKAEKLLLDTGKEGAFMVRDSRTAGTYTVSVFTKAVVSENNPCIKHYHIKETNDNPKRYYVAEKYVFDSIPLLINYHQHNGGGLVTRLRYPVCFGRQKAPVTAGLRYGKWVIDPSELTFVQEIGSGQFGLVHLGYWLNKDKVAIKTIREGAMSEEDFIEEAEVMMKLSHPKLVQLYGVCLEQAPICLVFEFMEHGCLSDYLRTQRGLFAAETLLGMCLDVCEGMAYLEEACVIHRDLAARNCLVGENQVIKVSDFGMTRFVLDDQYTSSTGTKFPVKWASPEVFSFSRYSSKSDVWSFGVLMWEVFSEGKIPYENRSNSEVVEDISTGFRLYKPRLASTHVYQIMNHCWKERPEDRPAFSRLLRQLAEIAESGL
The experiment in a line: Kinase inhibition assay (33P transfer), Itk. As to conditions: read-out: Itk-1.
Source text: as §1, §4
as §3, with “Kinase activity and inhibition are measured essentially by established protocols (Braunwalder et al., 1996). Briefly,” for “Briefly,”, “detector. The IC50 is determined by the concentration of compound that causes a 50% reduction in the amount of […] incorporated onto the substrate bound to the plate.” for “detector.”

Experiment [7] addresses T7, Zap-70 (Homo sapiens, UniProt P43403).
T7 construct: Kinases are expressed as either kinase domains or full length constructs; made in house
T7 sequence (P43403 1-619): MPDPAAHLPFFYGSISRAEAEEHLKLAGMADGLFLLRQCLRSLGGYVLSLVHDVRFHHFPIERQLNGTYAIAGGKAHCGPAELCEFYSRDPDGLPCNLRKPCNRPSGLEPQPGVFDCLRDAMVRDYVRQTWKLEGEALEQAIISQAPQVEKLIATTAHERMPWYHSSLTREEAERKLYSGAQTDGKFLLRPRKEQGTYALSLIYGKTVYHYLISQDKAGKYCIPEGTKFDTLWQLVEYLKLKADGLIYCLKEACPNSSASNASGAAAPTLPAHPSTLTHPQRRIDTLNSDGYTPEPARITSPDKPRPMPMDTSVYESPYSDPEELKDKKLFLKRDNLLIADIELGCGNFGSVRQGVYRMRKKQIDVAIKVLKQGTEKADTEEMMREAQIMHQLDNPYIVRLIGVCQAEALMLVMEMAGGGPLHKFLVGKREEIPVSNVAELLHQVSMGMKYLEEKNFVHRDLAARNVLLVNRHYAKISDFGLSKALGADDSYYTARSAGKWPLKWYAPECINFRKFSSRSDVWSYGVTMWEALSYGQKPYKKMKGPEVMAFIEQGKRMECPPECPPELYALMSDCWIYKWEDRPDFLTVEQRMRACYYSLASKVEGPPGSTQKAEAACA
The experiment can be described thus: Kinase inhibition assay (33P transfer), Zap-70. The settings on record: read-out: Zap-1.
Source text: as §1, §2, §3

Where two headings read alike, the source gives them in different places.

T2 sequence (P00533 25-1210, species assumed): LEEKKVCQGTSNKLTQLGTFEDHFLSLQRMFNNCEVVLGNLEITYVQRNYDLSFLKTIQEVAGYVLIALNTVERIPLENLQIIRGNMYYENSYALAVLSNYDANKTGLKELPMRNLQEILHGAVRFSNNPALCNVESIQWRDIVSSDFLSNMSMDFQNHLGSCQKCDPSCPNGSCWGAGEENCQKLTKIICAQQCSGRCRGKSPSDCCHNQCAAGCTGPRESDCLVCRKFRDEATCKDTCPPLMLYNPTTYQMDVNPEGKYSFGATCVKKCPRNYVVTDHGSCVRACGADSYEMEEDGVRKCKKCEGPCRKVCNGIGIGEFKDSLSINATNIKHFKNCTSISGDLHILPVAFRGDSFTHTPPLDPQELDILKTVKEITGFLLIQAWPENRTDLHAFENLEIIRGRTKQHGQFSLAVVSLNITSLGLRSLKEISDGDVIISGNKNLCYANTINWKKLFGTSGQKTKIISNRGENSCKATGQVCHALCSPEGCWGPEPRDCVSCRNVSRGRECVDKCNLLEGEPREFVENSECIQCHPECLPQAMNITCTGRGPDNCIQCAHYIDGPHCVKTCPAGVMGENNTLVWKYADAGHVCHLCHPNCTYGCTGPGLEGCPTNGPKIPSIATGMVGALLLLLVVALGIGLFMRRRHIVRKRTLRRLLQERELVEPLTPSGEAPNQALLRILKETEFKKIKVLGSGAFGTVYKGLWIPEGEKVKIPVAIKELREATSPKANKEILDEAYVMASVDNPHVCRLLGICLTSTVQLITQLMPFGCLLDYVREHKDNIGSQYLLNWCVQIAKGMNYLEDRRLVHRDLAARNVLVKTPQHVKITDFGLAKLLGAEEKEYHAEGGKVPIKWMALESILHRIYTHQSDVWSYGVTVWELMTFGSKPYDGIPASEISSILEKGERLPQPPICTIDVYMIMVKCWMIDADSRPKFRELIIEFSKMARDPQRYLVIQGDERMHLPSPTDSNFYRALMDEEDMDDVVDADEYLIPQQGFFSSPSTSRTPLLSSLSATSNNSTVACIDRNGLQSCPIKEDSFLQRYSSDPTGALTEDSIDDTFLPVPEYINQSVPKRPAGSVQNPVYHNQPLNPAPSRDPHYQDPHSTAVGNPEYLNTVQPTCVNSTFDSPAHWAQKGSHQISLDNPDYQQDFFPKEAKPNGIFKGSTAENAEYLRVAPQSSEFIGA
T4 sequence (Q9Y243 whole entry, the tested form may be a part): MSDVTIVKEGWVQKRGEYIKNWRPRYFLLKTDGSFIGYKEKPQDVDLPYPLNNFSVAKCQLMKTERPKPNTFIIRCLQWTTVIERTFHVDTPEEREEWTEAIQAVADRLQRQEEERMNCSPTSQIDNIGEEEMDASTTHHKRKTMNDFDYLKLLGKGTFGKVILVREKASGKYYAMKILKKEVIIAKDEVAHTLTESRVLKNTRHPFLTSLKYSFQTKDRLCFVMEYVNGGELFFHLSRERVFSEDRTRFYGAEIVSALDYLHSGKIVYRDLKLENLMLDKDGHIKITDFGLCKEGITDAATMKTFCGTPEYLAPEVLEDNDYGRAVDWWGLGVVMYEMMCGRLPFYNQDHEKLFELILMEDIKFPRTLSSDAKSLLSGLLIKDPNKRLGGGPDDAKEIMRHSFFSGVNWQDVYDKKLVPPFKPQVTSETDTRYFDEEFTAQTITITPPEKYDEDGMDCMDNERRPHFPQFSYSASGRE
T3 sequence (P06239 whole entry, species assumed, the tested form may be a part): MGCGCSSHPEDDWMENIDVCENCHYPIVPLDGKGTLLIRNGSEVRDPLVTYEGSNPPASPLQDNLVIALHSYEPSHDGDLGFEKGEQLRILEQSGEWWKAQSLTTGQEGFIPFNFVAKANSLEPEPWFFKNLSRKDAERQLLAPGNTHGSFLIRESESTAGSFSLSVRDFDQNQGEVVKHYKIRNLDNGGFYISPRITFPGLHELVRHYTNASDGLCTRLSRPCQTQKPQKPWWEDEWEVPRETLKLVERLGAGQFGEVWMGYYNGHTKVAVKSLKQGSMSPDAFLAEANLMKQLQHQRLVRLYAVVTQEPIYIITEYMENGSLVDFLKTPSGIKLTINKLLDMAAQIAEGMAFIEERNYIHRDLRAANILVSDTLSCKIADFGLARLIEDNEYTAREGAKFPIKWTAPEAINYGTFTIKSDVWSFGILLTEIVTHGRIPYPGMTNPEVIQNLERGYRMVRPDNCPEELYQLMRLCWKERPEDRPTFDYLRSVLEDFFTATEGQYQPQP
T1 sequence (P35968 20-1356, species assumed): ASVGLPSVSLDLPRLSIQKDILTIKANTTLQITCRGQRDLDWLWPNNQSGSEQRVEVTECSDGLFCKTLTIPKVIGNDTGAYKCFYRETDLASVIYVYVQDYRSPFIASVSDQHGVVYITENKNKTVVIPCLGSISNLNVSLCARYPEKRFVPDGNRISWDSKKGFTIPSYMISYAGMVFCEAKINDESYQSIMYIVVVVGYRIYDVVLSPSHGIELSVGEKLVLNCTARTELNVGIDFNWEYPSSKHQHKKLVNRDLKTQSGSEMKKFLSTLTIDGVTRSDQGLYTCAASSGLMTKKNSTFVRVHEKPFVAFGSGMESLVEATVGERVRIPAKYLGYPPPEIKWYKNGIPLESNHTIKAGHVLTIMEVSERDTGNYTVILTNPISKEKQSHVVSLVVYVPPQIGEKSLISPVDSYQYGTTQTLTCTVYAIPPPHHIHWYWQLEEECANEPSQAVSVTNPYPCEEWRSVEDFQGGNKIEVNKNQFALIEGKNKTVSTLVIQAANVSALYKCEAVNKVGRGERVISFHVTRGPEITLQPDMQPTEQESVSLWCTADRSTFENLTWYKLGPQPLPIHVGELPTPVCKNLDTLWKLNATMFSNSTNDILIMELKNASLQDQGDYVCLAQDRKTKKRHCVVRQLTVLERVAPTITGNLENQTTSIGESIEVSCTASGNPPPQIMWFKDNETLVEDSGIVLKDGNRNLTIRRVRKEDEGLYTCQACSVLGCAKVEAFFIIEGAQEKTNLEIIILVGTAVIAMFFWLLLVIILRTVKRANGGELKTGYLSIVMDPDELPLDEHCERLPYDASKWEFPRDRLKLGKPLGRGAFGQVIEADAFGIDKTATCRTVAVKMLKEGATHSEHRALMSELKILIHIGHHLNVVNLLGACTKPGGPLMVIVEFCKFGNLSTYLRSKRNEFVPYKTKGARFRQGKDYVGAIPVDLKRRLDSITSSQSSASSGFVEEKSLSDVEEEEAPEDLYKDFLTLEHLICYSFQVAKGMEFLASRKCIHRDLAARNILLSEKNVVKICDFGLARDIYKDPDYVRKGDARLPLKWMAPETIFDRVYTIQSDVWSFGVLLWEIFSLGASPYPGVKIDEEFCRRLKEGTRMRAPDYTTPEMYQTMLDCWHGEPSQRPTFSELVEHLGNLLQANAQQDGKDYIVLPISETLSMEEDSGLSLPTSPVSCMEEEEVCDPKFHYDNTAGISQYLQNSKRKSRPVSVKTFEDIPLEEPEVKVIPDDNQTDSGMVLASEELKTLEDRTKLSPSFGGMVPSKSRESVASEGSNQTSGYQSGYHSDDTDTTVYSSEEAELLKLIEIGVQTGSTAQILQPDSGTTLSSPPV
T5 sequence (P08581 25-1390): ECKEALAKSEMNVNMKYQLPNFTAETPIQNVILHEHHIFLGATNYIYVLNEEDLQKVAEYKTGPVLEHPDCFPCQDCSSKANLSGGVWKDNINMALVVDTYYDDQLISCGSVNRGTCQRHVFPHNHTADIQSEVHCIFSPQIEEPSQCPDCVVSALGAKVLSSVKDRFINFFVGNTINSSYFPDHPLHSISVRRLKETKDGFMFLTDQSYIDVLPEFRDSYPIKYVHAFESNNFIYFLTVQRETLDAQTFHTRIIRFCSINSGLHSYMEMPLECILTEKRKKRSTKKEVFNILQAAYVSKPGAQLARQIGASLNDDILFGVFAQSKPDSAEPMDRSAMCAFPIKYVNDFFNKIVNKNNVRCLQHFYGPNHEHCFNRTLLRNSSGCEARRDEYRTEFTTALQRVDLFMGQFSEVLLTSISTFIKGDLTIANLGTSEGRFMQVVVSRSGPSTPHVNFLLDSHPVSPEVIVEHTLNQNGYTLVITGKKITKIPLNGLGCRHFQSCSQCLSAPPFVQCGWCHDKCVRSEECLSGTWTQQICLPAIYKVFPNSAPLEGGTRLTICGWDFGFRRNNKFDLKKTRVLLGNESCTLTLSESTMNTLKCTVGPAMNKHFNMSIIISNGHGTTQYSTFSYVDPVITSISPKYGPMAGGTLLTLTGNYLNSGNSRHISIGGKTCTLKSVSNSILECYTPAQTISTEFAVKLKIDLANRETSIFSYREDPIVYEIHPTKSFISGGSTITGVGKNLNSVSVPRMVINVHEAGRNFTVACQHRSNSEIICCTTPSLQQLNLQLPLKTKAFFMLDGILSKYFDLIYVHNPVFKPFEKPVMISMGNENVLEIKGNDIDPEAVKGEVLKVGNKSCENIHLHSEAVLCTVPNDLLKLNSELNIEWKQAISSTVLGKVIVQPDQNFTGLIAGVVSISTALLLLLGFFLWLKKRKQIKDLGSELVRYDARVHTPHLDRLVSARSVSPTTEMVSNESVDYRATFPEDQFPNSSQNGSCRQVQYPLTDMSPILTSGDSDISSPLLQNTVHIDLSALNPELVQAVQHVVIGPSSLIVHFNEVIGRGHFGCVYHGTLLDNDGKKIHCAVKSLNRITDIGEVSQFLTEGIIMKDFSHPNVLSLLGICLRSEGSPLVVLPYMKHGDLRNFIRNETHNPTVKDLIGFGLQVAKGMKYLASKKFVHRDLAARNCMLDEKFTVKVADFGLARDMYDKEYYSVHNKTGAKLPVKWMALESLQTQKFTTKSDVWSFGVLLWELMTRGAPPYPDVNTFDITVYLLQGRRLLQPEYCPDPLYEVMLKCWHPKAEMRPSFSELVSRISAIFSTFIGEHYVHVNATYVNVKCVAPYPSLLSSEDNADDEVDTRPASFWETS

As to `CC(=O)NS(=O)(=O)c1ccc(Nc2ncnc(-n3c(=O)[nH]c4ccccc43)n2)cc1` [Compound 452], the IC50 in experiment [1] (Table 3) is 0.94 to 5.64 µM; in experiment [2], over 10.6 µM; in experiment [3] (Table 3), over 10.6 µM; in experiment [4] it was over 10.6 µM; in experiment [5] it was over 10.6 µM; in experiment [6] (Table 3), over 10.6 µM. Moreover, the IC50 in experiment [7] (Table 3) was over 10.6 µM.

`COc1cc(Nc2ncnc(-n3c(=O)sc4cc(Br)ccc43)n2)cc(OC)c1OC` [Compound 426]: the IC50 in experiment [1] (Table 3), in experiment [2], in experiment [3] (Table 3), in experiment [4], in experiment [5] and in experiment [6] (Table 3) was over 9.18 µM throughout. Besides, in experiment [7] (Table 3), the IC50 is over 9.18 µM.

As to `C#Cc1cccc(Nc2ncnc(-n3c(=O)[nH]c4ccccc43)n2)c1` [Compound 460], the IC50 in experiment [1] (Table 3) was 1.22 to 7.31 µM; in experiment [2] it was 1.22 to 7.31 µM; in experiment [3] (Table 3), 10.7 to 13.7 µM; in experiment [4], over 13.7 µM; in experiment [5] it was 7.31 to 10.7 µM; in experiment [6] (Table 3), over 13.7 µM. Besides, the IC50 in experiment [7] (Table 3) is over 13.7 µM.

Take `O=C(Nc1cccc(Nc2ncnc(-n3c(=O)[nH]c4ccccc43)n2)c1)O[C@@H]1CCOC1` [Compound 455]: the IC50 in experiment [1] (Table 3) is 0.923 to 5.54 µM; in experiment [2], 5.54 to 8.08 µM; in experiment [3] (Table 3) it was over 10.4 µM; in experiment [4], over 10.4 µM; in experiment [5] it was over 10.4 µM; in experiment [6] (Table 3) it was over 10.4 µM. Also, in experiment [7] (Table 3), the IC50 is over 10.4 µM.

As for `CC(C)(C)OC(=O)NCc1cccc(Nc2ncnc(Nc3cc(C(C)(C)C)n[nH]3)n2)c1` [Compound 987], the IC50 in experiment [1] is over 10.3 µM; in experiment [2], over 10.3 µM; in experiment [3] it was 0.912 to 5.47 µM; in experiment [4], over 10.3 µM; in experiment [5], over 10.3 µM; in experiment [6] it was over 10.3 µM. In experiment [7], the IC50 is over 10.3 µM.

On to `NS(=O)(=O)c1ccc(Nc2ncnc(-n3c(=O)[nH]c4ccccc43)n2)cc1` [Compound 451], for which the IC50 in experiment [1] (Table 3) was 1.04 to 6.26 µM; in experiment [2], over 11.7 µM; in experiment [3] (Table 3), 1.04 to 6.26 µM; in experiment [4], 9.13 to 11.7 µM; in experiment [5], over 11.7 µM; in experiment [6] (Table 3), over 11.7 µM. Besides, in experiment [7] (Table 3), the IC50 was over 11.7 µM.

As to `COc1cc(Nc2ncnc(Nc3nc(C)cs3)n2)cc(OC)c1OC` [Compound 468], the IC50 is 1.07 to 6.41 µM in experiment [1] (Table 3); 1.07 to 6.41 µM in experiment [2]; over 12 µM in experiment [3] (Table 3); over 12 µM in experiment [4]; over 12 µM in experiment [5]; over 12 µM in experiment [6] (Table 3). In experiment [7] (Table 3), the IC50 was over 12 µM.

On to `COc1ncnc(Nc2cc(OC)c(OC)c(OC)c2)n1` [Compound 421], for which the IC50 in experiment [1] (Table 3), in experiment [2], in experiment [3] (Table 3), in experiment [4], in experiment [5] and in experiment [6] (Table 3) was over 15.4 µM throughout. Further, the IC50 in experiment [7] (Table 3) was over 15.4 µM.

With `COc1cc(Nc2ncnc(-n3c(=O)[nH]c4ccccc43)n2)cc(OCCN2CCOCC2)c1OC` [Compound 1039], the IC50 is under 0.81 µM in experiment [1]; over 9.12 µM in experiment [2]; 0.81 to 4.86 µM in experiment [3]; over 9.12 µM in experiment [4]; over 9.12 µM in experiment [5]; over 9.12 µM in experiment [6]. Besides, the IC50 in experiment [7] is over 9.12 µM.

For `O=c1[nH]c2ccccc2n1-c1ncnc(Nc2ncccn2)n1` [Compound 490], the IC50 in experiment [1], in experiment [2], in experiment [3], in experiment [4], in experiment [5] and in experiment [6] was over 14.7 µM throughout. Further, in experiment [7], the IC50 was over 14.7 µM.

With `COc1cc(Nc2ncnc(-n3c(NC(=O)c4ccccc4)nc4ccccc43)n2)cc(OC)c1OC` [Compound 435], the IC50 in experiment [1] (Table 3), in experiment [2], in experiment [3] (Table 3), in experiment [4], in experiment [5] and in experiment [6] (Table 3) was over 9.04 µM each time. Besides, the IC50 in experiment [7] (Table 3) was over 9.04 µM.

Take `CCOC(=O)C(Cc1cccc(Nc2ncnc(Nc3cc(-c4ccco4)n[nH]3)n2)c1)(NC(C)=O)C(=O)OCC` [Compound 481]: the IC50 was 0.729 to 4.38 µM in experiment [1]; over 8.2 µM in experiment [2]; over 8.2 µM in experiment [3]; over 8.2 µM in experiment [4]; over 8.2 µM in experiment [5]; 6.38 to 8.2 µM in experiment [6]. Further, the IC50 in experiment [7] was over 8.2 µM.

`NS(=O)(=O)c1ccc(CNc2ncnc(-n3c(=O)[nH]c4ccccc43)n2)cc1` [Compound 456]: the IC50 in experiment [1] (Table 3), in experiment [2], in experiment [3] (Table 3), in experiment [4], in experiment [5] and in experiment [6] (Table 3) was over 11.3 µM each time. The IC50 in experiment [7] (Table 3) was over 11.3 µM.

In the case of `N#Cc1ccc(Nc2ncnc(-n3c(=O)[nH]c4ccccc43)n2)cc1` [Compound 485], the IC50 is 1.21 to 7.29 µM in experiment [1]; over 13.7 µM in experiment [2]; over 13.7 µM in experiment [3]; over 13.7 µM in experiment [4]; over 13.7 µM in experiment [5]; over 13.7 µM in experiment [6]. Moreover, in experiment [7], the IC50 is over 13.7 µM.

As for `O=C(Nc1ccc(Nc2ncnc(-n3c(=O)[nH]c4ccccc43)n2)cc1)O[C@@H]1CCOC1` [Compound 454], the IC50 was 0.923 to 5.54 µM in experiment [1] (Table 3); over 10.4 µM in experiment [2]; 0.923 to 5.54 µM in experiment [3] (Table 3); over 10.4 µM in experiment [4]; 5.54 to 8.08 µM in experiment [5]; over 10.4 µM in experiment [6] (Table 3). Besides, in experiment [7] (Table 3), the IC50 is over 10.4 µM.

Consider `O=c1[nH]c2ccccc2n1-c1ncnc(Nc2ccccc2Cl)n1` [Compound 484], for which the IC50 was over 13.3 µM in experiment [1]; 1.18 to 7.08 µM in experiment [2]; over 13.3 µM in experiment [3]; over 13.3 µM in experiment [4]; 7.08 to 10.3 µM in experiment [5]; over 13.3 µM in experiment [6]. For the same compound, the IC50 in experiment [7] is over 13.3 µM.

For the origin of these results see patent publication US7074789B2, “Kinase inhibitors” (Amgen Inc., priority 1999, dated 2006).
